Toxic doses and inconclusive results are not listed.
Tested on: L1210 leukemia ip in BDF1 mice, survival T/C
Test: NCI In Vivo Anticancer Drug Screen. Data for tumor model L1210 Leukemia (intraperitoneal) in B6D2F1 (BDF1) mice
Settings: endpoint: mean survival time, higher = longer survival
How it was run: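 Read-out is survival time, reported as the treated-group measurement over the vehicle-control measurement.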

[1] = dose: 100.0 mg/kg/injection, schedule: Q04DX002 (ip), vehicle: saline
[2] = dose: 200.0 mg/kg/injection, schedule: Q04DX002 (ip), vehicle: saline
[3] = dose: 100.0 mg/kg/injection, schedule: Q01DX009 (ip), vehicle: saline with Tween-80
[4] = dose: 200.0 mg/kg/injection, schedule: Q01DX009 (ip), vehicle: saline with Tween-80
[5] = dose: 400.0 mg/kg/injection, schedule: Q01DX009 (ip), vehicle: saline with Tween-80
[6] = dose: 100.0 mg/kg/injection, schedule: Q04DX003 (ip), vehicle: saline
[7] = dose: 200.0 mg/kg/injection, schedule: Q04DX003 (ip), vehicle: saline
[8] = dose: 400.0 mg/kg/injection, schedule: Q04DX003 (ip), vehicle: saline
[9] = dose: 100.0 mg/kg/injection, schedule: Q01DX009 (ip), vehicle: Klucel (hydroxypropylcellulose) (HPC)
[10] = dose: 200.0 mg/kg/injection, schedule: Q01DX009 (ip), vehicle: Klucel (hydroxypropylcellulose) (HPC)
[11] = dose: 50.0 mg/kg/injection, schedule: Q01DX009 (ip), vehicle: saline
[12] = dose: 100.0 mg/kg/injection, schedule: Q01DX009 (ip), vehicle: saline
[13] = dose: 100.0 mg/kg/injection, schedule: Q01DX005 (ip), vehicle: saline
[14] = dose: 200.0 mg/kg/injection, schedule: Q01DX005 (ip), vehicle: saline
[15] = dose: 25.0 mg/kg/injection, schedule: Q01DX009 (ip), vehicle: saline

Structure (SMILES): c1ccc2c(c1)CC1c3ccccc3CC21 (stereo not given)
- T/C (dose: 100.0 mg/kg/injection, schedule: Q01DX001 (ip), vehicle: saline): 109 % of control
- T/C (dose: 200.0 mg/kg/injection, schedule: Q01DX001 (ip), vehicle: saline): 103 % of control
- T/C (dose: 400.0 mg/kg/injection, schedule: Q01DX001 (ip), vehicle: saline): 98 % of control

Structure (SMILES): c1ccc(NC2CCCCC2)nc1
- T/C (dose: 100.0 mg/kg/injection, schedule: Q04DX003 (ip), vehicle: gum acacia): 95 % of control
- T/C (dose: 200.0 mg/kg/injection, schedule: Q04DX003 (ip), vehicle: gum acacia): 98 % of control
- T/C (dose: 400.0 mg/kg/injection, schedule: Q04DX003 (ip), vehicle: gum acacia): 96 % of control

Structure (SMILES): CC1CCC(C(=O)O)ON1 (stereo not given)
- T/C [1]: 114 % of control
- T/C [2]: 95 % of control
- T/C (dose: 400.0 mg/kg/injection, schedule: Q04DX002 (ip), vehicle: saline): 100 % of control

Structure (SMILES): CCC(CO)NC(=O)/C=C/c1cccc(Br)c1 (stereo not given)
- T/C (dose: 100.0 mg/kg/injection, schedule: Q04DX003 (ip), vehicle: other): 102 % of control
- T/C (dose: 200.0 mg/kg/injection, schedule: Q04DX003 (ip), vehicle: other): 103 % of control
- T/C (dose: 400.0 mg/kg/injection, schedule: Q04DX003 (ip), vehicle: other): 96 % of control

Structure (SMILES): CC(=O)Nc1ccc(S(=O)(=O)Nc2ccccc2C(F)(F)F)cc1
- T/C [3]: 93 % of control
- T/C [4]: 104 % of control
- T/C [5]: 91 % of control

Structure (SMILES): O=C(OCCNC(=O)N1CCOCC1)OCCNC(=O)N1CCOCC1
- T/C [6]: 100 % of control
- T/C [7]: 100 % of control
- T/C [8]: 106 % of control

Structure (SMILES): CNC(Cc1ccccc1)c1ccco1 (stereo not given)
- T/C (dose: 50.0 mg/kg/injection, schedule: Q01DX009 (ip), vehicle: Klucel (hydroxypropylcellulose) (HPC)): 104 % of control
- T/C [9]: 104 % of control
- T/C (dose: 100.0 mg/kg/injection, schedule: Q04DX002 (ip), vehicle: saline with Tween-80): 107 % of control
- T/C [10]: 102 % of control
- T/C (dose: 200.0 mg/kg/injection, schedule: Q04DX002 (ip), vehicle: saline with Tween-80): 110 % of control

Structure (SMILES): O=C(CC(Br)C(=O)c1ccccc1)c1ccccc1 (stereo not given)
- T/C [3]: 97 % of control
- T/C [4]: 97 % of control
- T/C [5]: 94 % of control

Structure (SMILES): COC1OC(COC(=S)SCc2ccccc2)C(O)C(O)C1O (stereo not given)
- T/C (dose: 50.0 mg/kg/injection, schedule: Q04DX002 (ip), vehicle: saline): 113 % of control
- T/C [1]: 110 % of control
- T/C [2]: 92 % of control

Structure (SMILES): C[C@]12CCC(=O)C=C1CC[C@@H]1[C@@H]2[C@@H](O)C[C@@]2(C)[C@H]1CC[C@]2(C)O
- T/C [11]: 91 % of control
- T/C [12]: 97 % of control
- T/C (dose: 200.0 mg/kg/injection, schedule: Q01DX009 (ip), vehicle: saline): 102 % of control

Structure (SMILES): C/C(=C\C(=O)/C=C(\C)NCc1ccccc1)NCc1ccccc1
- T/C (dose: 100.0 mg/kg/injection, schedule: Q04DX003 (ip), vehicle: Klucel (hydroxypropylcellulose) (HPC)): 98 % of control
- T/C (dose: 200.0 mg/kg/injection, schedule: Q04DX003 (ip), vehicle: Klucel (hydroxypropylcellulose) (HPC)): 100 % of control
- T/C (dose: 400.0 mg/kg/injection, schedule: Q04DX003 (ip), vehicle: Klucel (hydroxypropylcellulose) (HPC)): 93 % of control

Structure (SMILES): O=C(O)c1cc([N+](=O)[O-])ccc1Nc1cccc2ccccc12
- T/C [6]: 90 % of control
- T/C [7]: 97 % of control

Structure (SMILES): COc1nc(Cl)cc2c1ncn2C1OC(CO)C(O)C1O (stereo not given)
- T/C [13]: 111 % of control
- T/C [14]: 108 % of control

Structure (SMILES): O=C(O)COc1ccccc1C(=O)O
- T/C (dose: 5.0 mg/kg/injection, schedule: Q01DX001 (ip), vehicle: saline): 100 % of control
- T/C (dose: 10.0 mg/kg/injection, schedule: Q01DX001 (ip), vehicle: saline): 100 % of control
- T/C (dose: 20.0 mg/kg/injection, schedule: Q01DX001 (ip), vehicle: saline): 96 % of control
- T/C (dose: 20.0 mg/kg/injection, schedule: Q04DX002 (ip), vehicle: Klucel (hydroxypropylcellulose) (HPC)): 88 % of control
- T/C (dose: 40.0 mg/kg/injection, schedule: Q01DX001 (ip), vehicle: saline): 96 % of control
- T/C (dose: 40.0 mg/kg/injection, schedule: Q04DX002 (ip), vehicle: Klucel (hydroxypropylcellulose) (HPC)): 98 % of control
- T/C (dose: 80.0 mg/kg/injection, schedule: Q04DX002 (ip), vehicle: Klucel (hydroxypropylcellulose) (HPC)): 100 % of control
- T/C [9]: 89 % of control
- T/C (dose: 100.0 mg/kg/injection, schedule: Q04DX002 (ip), vehicle: Klucel (hydroxypropylcellulose) (HPC)): 95 % of control
- T/C [10]: 86 % of control
- T/C (dose: 200.0 mg/kg/injection, schedule: Q04DX002 (ip), vehicle: Klucel (hydroxypropylcellulose) (HPC)): 98 % of control
- T/C (dose: 400.0 mg/kg/injection, schedule: Q01DX009 (ip), vehicle: Klucel (hydroxypropylcellulose) (HPC)): 89 % of control
- T/C (dose: 400.0 mg/kg/injection, schedule: Q04DX002 (ip), vehicle: Klucel (hydroxypropylcellulose) (HPC)): 103 % of control

Structure (SMILES): NS(=O)(=O)c1ccc(C(=O)NO)cc1
- T/C [6]: 100 % of control
- T/C [7]: 110 % of control
- T/C [8]: 102 % of control

Structure (SMILES): Cc1cccc(CSc2nc(N)nc3c2ncn3C2CC(O)C(CO)O2)n1 (stereo not given)
- T/C [13]: 104 % of control
- T/C [12]: 113 % of control
- T/C [14]: 107 % of control
- T/C (dose: 600.0 mg/kg/injection, schedule: Q01DX009 (ip), vehicle: saline): 153 % of control

Structure (SMILES): COC(=O)C1(C(=O)OC)C(c2ccccc2)C1(C(=O)OC)C(=O)OC
- T/C (dose: 12.5 mg/kg/injection, schedule: Q01DX009 (ip), vehicle: saline with Tween-80): 94 % of control
- T/C (dose: 25.0 mg/kg/injection, schedule: Q01DX009 (ip), vehicle: saline with Tween-80): 98 % of control
- T/C (dose: 50.0 mg/kg/injection, schedule: Q01DX009 (ip), vehicle: saline with Tween-80): 94 % of control
- T/C [3]: 91 % of control

Structure (SMILES): c1ccc2c(c1)CC1CCCCN1C2 (stereo not given)
- T/C (dose: 12.5 mg/kg/injection, schedule: Q01DX001 (ip), vehicle: Klucel (hydroxypropylcellulose) (HPC)): 93 % of control
- T/C (dose: 25.0 mg/kg/injection, schedule: Q01DX001 (ip), vehicle: Klucel (hydroxypropylcellulose) (HPC)): 98 % of control
- T/C [15]: 96 % of control
- T/C (dose: 50.0 mg/kg/injection, schedule: Q01DX001 (ip), vehicle: Klucel (hydroxypropylcellulose) (HPC)): 93 % of control
- T/C [11]: 106 % of control
- T/C [6]: 88 % of control

Structure (SMILES): O=C(CCN1CCCCC1)c1cccc([N+](=O)[O-])c1
- T/C (dose: 12.0 mg/kg/injection, schedule: Q04DX003 (ip), vehicle: saline): 93 % of control
- T/C [15]: 111 % of control
- T/C (dose: 25.0 mg/kg/injection, schedule: Q04DX003 (ip), vehicle: saline): 101 % of control
- T/C [11]: 103 % of control
- T/C (dose: 50.0 mg/kg/injection, schedule: Q04DX003 (ip), vehicle: saline): 95 % of control
- T/C [12]: 103 % of control

Reference: PubChem BioAssay AID248 (DTP/NCI, 2004)
